Measured values taken from the supplement of paper PMC10307832.

Columns and labels:
Experiment in all cases: relative viability (nuclei count vs DMSO), 5 days (fraction); higher = more cells survive
[1] = compound: CC1=NC=CC(=C1)C2=CC=C(C=C2)CC(=O)NC3=CC=C(C=C3)C4=CN=CC=C4 [Wnt-C59] + C[C@]1(O)C[C@@H](c2nc(-c3ccc4ccc(-c5ccccc5)nc4c3)c3c(N)nccn32)C1 [Linsitinib] (partner 1 µM)
How it was run: (§1)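 Lung cancer cell lines in 1536-well plates got either a single drug or a fixed anchor-drug dose together with five library-drug doses (not always all listed) in √10 steps, by pin tool, on the day after seeding. Nuclei were counted after 5 days, and relative viability is the treated-to-vehicle ratio of nuclei counts. Values are medians of duplicate plates.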

[2] = compound: CC1=NC=CC(=C1)C2=CC=C(C=C2)CC(=O)NC3=CC=C(C=C3)C4=CN=CC=C4 [Wnt-C59] + N=C(N)NC(=N)NCCc1ccccc1 [Phenformin] (partner 250 µM)
How it was run: as §1

[3] = compound: CS(=O)(=O)CCNCc1ccc(-c2ccc3ncnc(Nc4ccc(OCc5cccc(F)c5)c(Cl)c4)c3c2)o1 [Lapatinib] + CC(=O)c1c(C)c2cnc(Nc3ccc(N4CCNCC4)cn3)nc2n(C2CCCC2)c1=O [Palbociclib] (partner 0.5 µM)
How it was run: as §1

[4] = compound: CS(=O)(=O)CCNCc1ccc(-c2ccc3ncnc(Nc4ccc(OCc5cccc(F)c5)c(Cl)c4)c3c2)o1 [Lapatinib] + COc1cccc2cc(-c3nc([C@H]4CC[C@H](C(=O)O)CC4)n4ncnc(N)c34)[nH]c12 [OSI-027] (partner 0.5 µM)
How it was run: as §1

Row | Cell Line | relative viability ([1]; first compound 0.001 µM) | relative viability ([1]; first compound 0.01 µM) | relative viability ([1]; first compound 0.03162 µM) | relative viability ([1]; first compound 0.1 µM) | relative viability ([2]; first compound 0.001 µM) | relative viability ([2]; first compound 0.01 µM) | relative viability ([2]; first compound 0.03162 µM) | relative viability ([2]; first compound 0.1 µM) | relative viability ([3]; first compound 0.02 µM) | relative viability ([3]; first compound 0.06325 µM) | relative viability ([3]; first compound 0.2 µM) | relative viability ([3]; first compound 0.6325 µM) | relative viability ([3]; first compound 2 µM) | relative viability ([4]; first compound 0.02 µM) | relative viability ([4]; first compound 0.06325 µM) | relative viability ([4]; first compound 0.2 µM) | relative viability ([4]; first compound 0.6325 µM) | relative viability ([4]; first compound 2 µM)
1 | NCI-H2009 | 1.17 | 1.15 | 1.19 | 1.12 | 0.535 | 0.514 | 0.495 | 0.469 | 0.192 | 0.213 | 0.177 | 0.253 | 0.233 | 0.64 | 0.557 | 0.681 | 0.764 | 0.66
2 | NCI-H1915 | 1.07 | 1.04 | 1.12 | 1.09 | 0.362 | 0.392 | 0.385 | 0.367 |  | 0.517 | 0.489 | 0.496 | 0.522 |  | 0.601 | 0.629 | 0.607 | 0.619
3 | NCI-H650 | 0.919 | 0.916 | 0.828 | 0.926 | 0.441 | 0.457 | 0.483 | 0.5 |  | 0.315 | 0.346 | 0.319 | 0.334 |  | 0.411 | 0.468 | 0.505 | 0.543
4 | NCI-H3122 | 1.04 | 0.931 | 1.02 | 1.02 | 0.369 | 0.366 | 0.36 | 0.362 | 0.185 | 0.176 | 0.17 | 0.198 | 0.236 |  | 0.556 | 0.962 | 0.902 | 0.893
5 | NCI-H2085 | 0.971 | 0.867 | 1.02 | 0.947 | 0.757 | 0.649 | 0.691 | 0.673 | 0.485 | 0.462 | 0.474 | 0.445 | 0.338 |  | 0.536 | 0.61 | 0.584 | 0.269
6 | NCI-H1395 | 0.972 | 1.06 | 1.09 | 1.03 | 0.442 | 0.423 | 0.495 | 0.429 |  | 0.621 | 0.581 | 0.598 | 0.616 | 0.535 | 0.597 | 0.612 | 0.636 | 0.627
7 | EKVX | 1.07 | 0.846 | 1.01 | 0.757 | 0.225 | 0.216 | 0.216 | 0.241 |  | 0.337 | 0.265 | 0.22 | 0.145 | 0.594 | 0.502 | 0.575 | 0.58 | 0.325
8 | HCC-15 | 0.922 | 0.96 | 0.856 | 0.928 | 0.47 | 0.515 | 0.48 | 0.438 |  | 0.68 | 0.734 | 0.652 | 0.584 |  | 0.386 | 0.682 | 0.727 | 0.612
9 | LK-2 | 0.529 | 0.708 | 0.563 | 0.582 | 0.479 | 0.379 | 0.481 | 0.321 | 0.634 |  | 0.832 |  | 1.01 | 0.217 |  | 0.228 | 0.238 | 0.228
